We go through 40 compounds from patent publication US20200179428A1, “CYCLIC PHOSPHATE SUBSTITUTED NUCLEOSIDE DERIVATIVES AND METHODS OF USE THEREOF FOR THE TREATMENT OF VIRAL DISEASES” (priority 2016, published 2020).

One data set concerns replicon cells (1b-Con1). The data set can be described thus: Replicon activity assay (replicon RNA level by real-time RT-PCR, Taqman). Format: cell-based. To be noted: Hepatitis C virus, HCV replicon genotype 1b; read-out: EC50 (1b) Range. The procedure: (§1) To measure cell-based anti-HCV activity of the compounds of the present invention, replicon cells (1b-Con1) are seeded at 5000 cells/well in 96-well plates one day prior to treatment with a compound of the invention. Various concentrations of a test compound of the invention in DMSO are then added to the replicon cells, with the final concentration of DMSO at 0.5% and fetal bovine serum at 10% in the assay media. Cells are harvested three days post-dosing, and the replicon RNA level is determined using real-time RT-PCR (Taqman assay) with GAPDH RNA as endogenous control. EC50 values are calculated from experiments with 10 serial twofold dilutions of the inhibitor in triplicate. To measure cytotoxicity in replicon cells of an inhibitor, an MTS assay is performed according to the manufacturer's protocol for CellTiter 96 Aqueous One Solution Cell Proliferation Assay (Promega, Cat # G3580) three days post dosing on cells treated identically as in replicon activity assays. […] Cytotoxicity in other types of cells may be measured using the same MTS protocol.

The nature of data set [1]: Cytotoxicity MTS assay (CellTiter 96 Aqueous One Solution) in replicon cells. Format: cell-based. To be noted: HCV replicon cells (1b-Con1); EDU; read-out: CC50 (EDU) Range. How it is done: as §1

A value given as a limit tells only on which side of the number the result lay.

Usually EC50 stands for the concentration needed to bring the measured effect to its halfway point. What is called CC50 is the concentration giving 50% cytotoxicity. As for `C#C[C@]1(C)[C@@H]2O[P@@](=O)(OCC[C@H](NC(=O)OC)C(=O)OC(C)C)OC[C@H]2O[C@H]1n1ccc(=O)[nH]c1=O` [Compound 43A], in the data set on replicon cells (1b-Con1), the EC50 is more than 10 µM. Besides, in data set [1], the CC50 at 3 days is more than 50 µM.
On to `C#C[C@]1(C)[C@@H]2O[P@](=O)(OCC[C@H](NC(=O)OC)C(=O)OC(C)C)OC[C@H]2O[C@H]1n1ccc(=O)[nH]c1=O` [Compound 43B], for which, in the data set on replicon cells (1b-Con1), the EC50 is more than 10 µM. Moreover, the CC50 at 3 days in data set [1] was more than 50 µM.
Take `C#C[C@]1(C)[C@@H]2O[P@@](=O)(OCCC(CO)C(=O)OC(C)C)OC[C@H]2O[C@H]1n1ccc(=O)[nH]c1=O` (some centres unmarked) [Compound 44A]: the 50% effective concentration (EC50) with replicon cells (1b-Con1) was more than 10 µM. In data set [1], the CC50 at 3 days was more than 50 µM.
On the same counts, the results for `C#C[C@]1(C)[C@@H]2O[P@](=O)(OCCC(CO)C(=O)OC(C)C)OC[C@H]2O[C@H]1n1ccc(=O)[nH]c1=O` (some centres unmarked) [Compound 44B] are more than 10 µM and more than 50 µM.
With `CO[C@H](CCO[P@@]1(=O)OC[C@H]2O[C@@H](n3ccc(=O)[nH]c3=O)[C@](C)(N)[C@@H]2O1)C(=O)OC(C)C` [Compound 45A], the EC50 in the data set on replicon cells (1b-Con1) was in the range of 1 to 10 µM. Further, in data set [1], the CC50 at 3 days is more than 50 µM.
On the same counts, the results for `CO[C@H](CCO[P@]1(=O)OC[C@H]2O[C@@H](n3ccc(=O)[nH]c3=O)[C@](C)(N)[C@@H]2O1)C(=O)OC(C)C` [Compound 45B] are more than 10 µM and more than 50 µM.
The corresponding values for `C[C@@]1(N)[C@@H]2O[P@@](=O)(OCCC3CCOC3=O)OC[C@H]2O[C@H]1n1ccc(=O)[nH]c1=O` (some centres unmarked) [Compound 46A] are more than 10 µM and more than 50 µM.
The corresponding values for `C[C@@]1(N)[C@@H]2O[P@](=O)(OCCC3CCOC3=O)OC[C@H]2O[C@H]1n1ccc(=O)[nH]c1=O` (some centres unmarked) [Compound 46B] are more than 10 µM and more than 50 µM.
With `CC(C)OC(=O)C1CC1CO[P@@]1(=O)OC[C@H]2O[C@@H](n3ccc(=O)[nH]c3=O)[C@](C)(N)[C@@H]2O1` (some centres unmarked) [Compound 47A], the EC50 with replicon cells (1b-Con1) was more than 10 µM. Further, in data set [1], the CC50 at 3 days was more than 50 µM.
On the same counts, the results for `CC(C)OC(=O)C1CC1CO[P@]1(=O)OC[C@H]2O[C@@H](n3ccc(=O)[nH]c3=O)[C@](C)(N)[C@@H]2O1` (some centres unmarked) [Compound 47B] are more than 10 µM and more than 50 µM.
On the same counts, the results for `CO[C@H](CO[P@@]1(=O)OC[C@H]2O[C@@H](n3ccc(=O)[nH]c3=O)[C@](C)(N)[C@@H]2O1)[C@@H](OC)C(=O)OC(C)C` [Compound 48A] are more than 10 µM and more than 50 µM.
For `CO[C@H](CO[P@]1(=O)OC[C@H]2O[C@@H](n3ccc(=O)[nH]c3=O)[C@](C)(N)[C@@H]2O1)[C@@H](OC)C(=O)OC(C)C` [Compound 48B], the EC50 in the data set with replicon cells (1b-Con1) is more than 10 µM. Also, the CC50 at 3 days in data set [1] was more than 50 µM.
On the same counts, the results for `CC(C)OC(=O)CC(F)(F)CO[P@@]1(=O)OC[C@H]2O[C@@H](n3ccc(=O)[nH]c3=O)[C@](C)(N)[C@@H]2O1` [Compound 49A] are more than 10 µM and more than 50 µM.
On the same counts, the results for `CC(C)OC(=O)CC(F)(F)CO[P@]1(=O)OC[C@H]2O[C@@H](n3ccc(=O)[nH]c3=O)[C@](C)(N)[C@@H]2O1` [Compound 49B] are 1 to 10 µM and less than 50 µM.
The corresponding values for `C#C[C@]1(C)[C@@H]2O[P@@](=O)(OCC[C@@H](OC(C)=O)C(=O)OC(C)C)OC[C@H]2O[C@H]1n1ccc(=O)[nH]c1=O` [Compound 50A] are more than 10 µM and more than 50 µM.
As for `C#C[C@]1(C)[C@@H]2O[P@](=O)(OCC[C@@H](OC(C)=O)C(=O)OC(C)C)OC[C@H]2O[C@H]1n1ccc(=O)[nH]c1=O` [Compound 50B], the EC50 with replicon cells (1b-Con1) is 0.25 to 1 µM. Also, the 50% cytotoxic concentration (CC50) at 3 days in data set [1] is more than 50 µM.
The corresponding values for `C#C[C@]1(C)[C@@H]2O[P@@](=O)(OCC[C@H](OC(C)=O)C(=O)OC(C)C)OC[C@H]2O[C@H]1n1ccc(=O)[nH]c1=O` [Compound 51A] are 1 to 10 µM and more than 50 µM.
On the same counts, the results for `C#C[C@]1(C)[C@@H]2O[P@](=O)(OCC[C@H](OC(C)=O)C(=O)OC(C)C)OC[C@H]2O[C@H]1n1ccc(=O)[nH]c1=O` [Compound 51B] are not above 0.25 µM and more than 50 µM.
On the same counts, the results for `CC(=O)O[C@H](C(=O)OC(C)C)[C@@H](COP1(=O)OC[C@H]2O[C@@H](n3ccc(=O)[nH]c3=O)[C@](C)(N)[C@@H]2O1)OC(C)=O` (some centres unmarked) [Compound 53B] are more than 10 µM and more than 50 µM.
For the compound `CC(=O)O[C@@H](CO[P@@]1(=O)OC[C@H]2O[C@@H](n3ccc(=O)[nH]c3=O)[C@](C)(N)[C@@H]2O1)[C@@H](OC(C)=O)C(=O)OC(C)C` [Compound 54A], the EC50 in the data set with replicon cells (1b-Con1) is more than 10 µM. Moreover, in data set [1], the CC50 at 3 days is more than 50 µM.
On the same counts, the results for `CC(=O)O[C@@H](CO[P@]1(=O)OC[C@H]2O[C@@H](n3ccc(=O)[nH]c3=O)[C@](C)(N)[C@@H]2O1)[C@@H](OC(C)=O)C(=O)OC(C)C` [Compound 54B] are more than 10 µM and more than 50 µM.
On the same counts, the results for `C#C[C@]1(C)[C@@H]2O[P@@](=O)(OCC[C@H](OC)C(=O)OC(C)C)OC[C@H]2O[C@H]1n1ccc(=O)[nH]c1=O` [Compound 56A] are 0.25 to 1 µM and more than 50 µM.
The corresponding values for `C#C[C@]1(C)[C@@H]2O[P@](=O)(OCC[C@H](OC)C(=O)OC(C)C)OC[C@H]2O[C@H]1n1ccc(=O)[nH]c1=O` [Compound 56B] are 0.25 to 1 µM and more than 50 µM.
For the compound `C#C[C@]1(C)[C@@H]2O[P@@](=O)(OCC[C@@H](OC)C(=O)OC(C)C)OC[C@H]2O[C@H]1n1ccc(=O)[nH]c1=O` [Compound 57A], the EC50 in the data set on replicon cells (1b-Con1) lay within 1 to 10 µM. The half-maximal cytotoxic concentration (CC50) at 3 days in data set [1] was more than 50 µM.
On the same counts, the results for `C#C[C@]1(C)[C@@H]2O[P@](=O)(OCC[C@@H](OC)C(=O)OC(C)C)OC[C@H]2O[C@H]1n1ccc(=O)[nH]c1=O` [Compound 57B] are 1 to 10 µM and more than 50 µM.
For `CC(C)OC(=O)CS(=O)(=O)CCO[P@@]1(=O)OC[C@H]2O[C@@H](n3ccc(=O)[nH]c3=O)[C@](C)(N)[C@@H]2O1` [Compound 58A], the EC50 with replicon cells (1b-Con1) was more than 10 µM. In data set [1], the CC50 at 3 days was less than 50 µM.
On the same counts, the results for `C#C[C@@]1(O)[C@@H]2O[P@@](=O)(OCCC(C(=O)OC(C)C)C(=O)OC(C)C)OC[C@H]2O[C@H]1n1ccc(=O)[nH]c1=O` [Compound 59A] are 0.25 to 1 µM and more than 50 µM.
The corresponding values for `C#C[C@@]1(O)[C@@H]2O[P@](=O)(OCCC(C(=O)OC(C)C)C(=O)OC(C)C)OC[C@H]2O[C@H]1n1ccc(=O)[nH]c1=O` [Compound 59B] are not above 0.25 µM and more than 50 µM.
The corresponding values for `C#C[C@]1(C)[C@@H]2O[P@@](=O)(OC[C@H](CC(=O)OC(C)C)OC)OC[C@H]2O[C@H]1n1ccc(=O)[nH]c1=O` [Compound 60A] are more than 10 µM and more than 50 µM.
Take `C#C[C@]1(C)[C@@H]2O[P@](=O)(OC[C@H](CC(=O)OC(C)C)OC)OC[C@H]2O[C@H]1n1ccc(=O)[nH]c1=O` [Compound 60B]: in the data set on replicon cells (1b-Con1), the EC50 was more than 10 µM. Moreover, the CC50 at 3 days in data set [1] is more than 50 µM.
As for `CO[C@H](CO[P@@]1(=O)OC[C@H]2O[C@@H](n3ccc(=O)[nH]c3=O)[C@](C)(N)[C@@H]2O1)CC(=O)OC(C)C` [Compound 61A], the EC50 in the data set on replicon cells (1b-Con1) is more than 10 µM. Also, the CC50 at 3 days in data set [1] was more than 50 µM.
On the same counts, the results for `CO[C@H](CO[P@]1(=O)OC[C@H]2O[C@@H](n3ccc(=O)[nH]c3=O)[C@](C)(N)[C@@H]2O1)CC(=O)OC(C)C` [Compound 61B] are more than 10 µM and more than 50 µM.
On the same counts, the results for `C#C[C@]1(C)[C@@H]2O[P@@](=O)(OC[C@@H](CC(=O)OC(C)C)OC)OC[C@H]2O[C@H]1n1ccc(=O)[nH]c1=O` [Compound 62A] are more than 10 µM and more than 50 µM.
On the same counts, the results for `C#C[C@]1(C)[C@@H]2O[P@](=O)(OC[C@@H](CC(=O)OC(C)C)OC)OC[C@H]2O[C@H]1n1ccc(=O)[nH]c1=O` [Compound 62B] are more than 10 µM and more than 50 µM.
Regarding `CO[C@@H](CO[P@@]1(=O)OC[C@H]2O[C@@H](n3ccc(=O)[nH]c3=O)[C@](C)(N)[C@@H]2O1)CC(=O)OC(C)C` [Compound 63A], the EC50 with replicon cells (1b-Con1) was more than 10 µM. In data set [1], the CC50 at 3 days is more than 50 µM.
Consider `CO[C@@H](CO[P@]1(=O)OC[C@H]2O[C@@H](n3ccc(=O)[nH]c3=O)[C@](C)(N)[C@@H]2O1)CC(=O)OC(C)C` [Compound 63B], for which the EC50 in the data set with replicon cells (1b-Con1) is more than 10 µM. For the same compound, the CC50 at 3 days in data set [1] is more than 50 µM.
On the same counts, the results for `C#C[C@]1(C)[C@@H]2O[P@@](=O)(OC[C@@H](F)CC(=O)OC(C)C)OC[C@H]2O[C@H]1n1ccc(=O)[nH]c1=O` [Compound 64A] are 0.25 to 1 µM and more than 50 µM.
On the same counts, the results for `C#C[C@]1(C)[C@@H]2O[P@](=O)(OC[C@@H](F)CC(=O)OC(C)C)OC[C@H]2O[C@H]1n1ccc(=O)[nH]c1=O` [Compound 64B] are 0.25 to 1 µM and more than 50 µM.
Turning to `CC(C)OC(=O)C[C@H](F)CO[P@@]1(=O)OC[C@H]2O[C@@H](n3ccc(=O)[nH]c3=O)[C@](C)(N)[C@@H]2O1` [Compound 65A], the EC50 in the data set on replicon cells (1b-Con1) is more than 10 µM. Also, in data set [1], the CC50 at 3 days is more than 50 µM.
Regarding `C#C[C@]1(C)[C@@H]2O[P@@](=O)(OC[C@H](F)CC(=O)OC(C)C)OC[C@H]2O[C@H]1n1ccc(=O)[nH]c1=O` [Compound 66A], in the data set with replicon cells (1b-Con1), the EC50 is more than 10 µM. In data set [1], the CC50 at 3 days was more than 50 µM.
